Data published in PubChem BioAssay (NCI).
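These data come from cells grown in 96-well plates and exposed to compound for 48 hours at five concentrations. TGI denotes the concentration required for complete inhibition of growth.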

Experiments:
Assay in all cases: NCI tumour cell line growth inhibition, 48 h
SF-539 CNS = tested on: SF-539 CNS
SK-MEL-2 melanoma = tested on: SK-MEL-2 melanoma
MDA-MB-435 = tested on: MDA-MB-435
RXF 393 renal = tested on: RXF 393 renal
HT29 colon = tested on: HT29 colon
SK-MEL-28 melanoma = tested on: SK-MEL-28 melanoma
KM12 colon = tested on: KM12 colon
HS 578T breast = tested on: HS 578T breast
MOLT-4 leukemia = tested on: MOLT-4 leukemia
SNB-19 CNS = tested on: SNB-19 CNS
786-0 renal = tested on: 786-0 renal
U251 CNS = tested on: U251 CNS
CAKI-1 renal = tested on: CAKI-1 renal
SK-MEL-5 melanoma = tested on: SK-MEL-5 melanoma
K-562 leukemia = tested on: K-562 leukemia
UACC-62 melanoma = tested on: UACC-62 melanoma
MALME-3M melanoma = tested on: MALME-3M melanoma
OVCAR-8 ovarian = tested on: OVCAR-8 ovarian
NCI-H460 lung = tested on: NCI-H460 lung
HOP-62 NSCLC = tested on: HOP-62 NSCLC
OVCAR-3 ovarian = tested on: OVCAR-3 ovarian
SR leukemia = tested on: SR leukemia
HCC-2998 colon = tested on: HCC-2998 colon
NCI-H226 lung = tested on: NCI-H226 lung
SK-OV-3 ovarian = tested on: SK-OV-3 ovarian
RPMI-8226 leukemia = tested on: RPMI-8226 leukemia
A498 renal = tested on: A498 renal
SN12C renal = tested on: SN12C renal
EKVX NSCLC = tested on: EKVX NSCLC
OVCAR-4 ovarian = tested on: OVCAR-4 ovarian
T-47D breast = tested on: T-47D breast
ACHN renal = tested on: ACHN renal
PC-3 prostate = tested on: PC-3 prostate
HL-60(TB) leukemia = tested on: HL-60(TB) leukemia
SNB-75 CNS = tested on: SNB-75 CNS
IGROV1 ovarian = tested on: IGROV1 ovarian
NCI/ADR-RES ovarian = tested on: NCI/ADR-RES ovarian
SF-268 CNS = tested on: SF-268 CNS
M14 melanoma = tested on: M14 melanoma
MCF7 breast = tested on: MCF7 breast
DU-145 prostate = tested on: DU-145 prostate
SF-295 CNS = tested on: SF-295 CNS
UACC-257 melanoma = tested on: UACC-257 melanoma
HCT-116 colon = tested on: HCT-116 colon
HOP-92 NSCLC = tested on: HOP-92 NSCLC
MDA-N = tested on: MDA-N
CCRF-CEM leukemia = tested on: CCRF-CEM leukemia
SW-620 colon = tested on: SW-620 colon
A549 NSCLC = tested on: A549 NSCLC
NCI-H522 lung = tested on: NCI-H522 lung
LOX IMVI melanoma = tested on: LOX IMVI melanoma
MDA-MB-231 breast = tested on: MDA-MB-231 breast
OVCAR-5 ovarian = tested on: OVCAR-5 ovarian
UO-31 renal = tested on: UO-31 renal
COLO 205 colon = tested on: COLO 205 colon
HCT-15 colon = tested on: HCT-15 colon
BT-549 breast = tested on: BT-549 breast
TK-10 renal = tested on: TK-10 renal
NCI-H23 lung = tested on: NCI-H23 lung

## [N-]=[N+]=Nc1ccc2c(c1)Sc1ccccc1N2CCCCCl
SF-539 CNS
  TGI: > 100 µM
SK-MEL-2 melanoma
  TGI: 76.9 µM
MDA-MB-435
  TGI: > 100 µM
RXF 393 renal
  TGI: > 100 µM
HT29 colon
  TGI: > 100 µM
SK-MEL-28 melanoma
  TGI: > 100 µM
KM12 colon
  TGI: > 100 µM
HS 578T breast
  TGI: > 100 µM
MOLT-4 leukemia
  TGI: > 100 µM
SNB-19 CNS
  TGI: > 100 µM
786-0 renal
  TGI: > 100 µM
U251 CNS
  TGI: > 100 µM
CAKI-1 renal
  TGI: > 100 µM
SK-MEL-5 melanoma
  TGI: 59.8 µM
K-562 leukemia
  TGI: > 100 µM
UACC-62 melanoma
  TGI: > 100 µM
MALME-3M melanoma
  TGI: > 100 µM
OVCAR-8 ovarian
  TGI: > 100 µM
NCI-H460 lung
  TGI: > 100 µM
HOP-62 NSCLC
  TGI: > 100 µM
OVCAR-3 ovarian
  TGI: > 100 µM
SR leukemia
  TGI: > 100 µM
HCC-2998 colon
  TGI: > 100 µM
NCI-H226 lung
  TGI: > 100 µM
SK-OV-3 ovarian
  TGI: > 100 µM
RPMI-8226 leukemia
  TGI: > 100 µM
A498 renal
  TGI: > 100 µM
SN12C renal
  TGI: > 100 µM
EKVX NSCLC
  TGI: > 100 µM
OVCAR-4 ovarian
  TGI: > 100 µM
T-47D breast
  TGI: > 100 µM
ACHN renal
  TGI: > 100 µM
PC-3 prostate
  TGI: > 100 µM
HL-60(TB) leukemia
  TGI: 64.3 µM
SNB-75 CNS
  TGI: > 100 µM
IGROV1 ovarian
  TGI: > 100 µM
NCI/ADR-RES ovarian
  TGI: > 100 µM
SF-268 CNS
  TGI: > 100 µM
M14 melanoma
  TGI: > 100 µM
MCF7 breast
  TGI: > 100 µM
DU-145 prostate
  TGI: > 100 µM
SF-295 CNS
  TGI: > 100 µM
UACC-257 melanoma
  TGI: > 100 µM
HCT-116 colon
  TGI: > 100 µM
HOP-92 NSCLC
  TGI: > 100 µM
MDA-N
  TGI: > 100 µM
CCRF-CEM leukemia
  TGI: > 100 µM
SW-620 colon
  TGI: > 100 µM
A549 NSCLC
  TGI: > 100 µM
NCI-H522 lung
  TGI: > 100 µM
LOX IMVI melanoma
  TGI: > 100 µM
MDA-MB-231 breast
  TGI: > 100 µM
OVCAR-5 ovarian
  TGI: > 100 µM
UO-31 renal
  TGI: > 100 µM
COLO 205 colon
  TGI: 82.3 µM
HCT-15 colon
  TGI: > 100 µM
BT-549 breast
  TGI: > 100 µM
TK-10 renal
  TGI: > 100 µM
NCI-H23 lung
  TGI: > 100 µM

## CC1(C)C(=O)N=C(N)N1C(=O)OCc1ccccc1
SF-539 CNS
  TGI: > 100 µM
SK-MEL-2 melanoma
  TGI: > 100 µM
MDA-MB-435
  TGI: > 100 µM
HT29 colon
  TGI: > 100 µM
SK-MEL-28 melanoma
  TGI: > 100 µM
KM12 colon
  TGI: > 100 µM
HS 578T breast
  TGI: > 100 µM
MOLT-4 leukemia
  TGI: > 100 µM
SNB-19 CNS
  TGI: > 100 µM
786-0 renal
  TGI: > 100 µM
U251 CNS
  TGI: > 100 µM
CAKI-1 renal
  TGI: > 100 µM
SK-MEL-5 melanoma
  TGI: > 100 µM
K-562 leukemia
  TGI: > 100 µM
UACC-62 melanoma
  TGI: > 100 µM
MALME-3M melanoma
  TGI: > 100 µM
OVCAR-8 ovarian
  TGI: > 100 µM
NCI-H460 lung
  TGI: > 100 µM
HOP-62 NSCLC
  TGI: > 100 µM
OVCAR-3 ovarian
  TGI: > 100 µM
SR leukemia
  TGI: > 100 µM
HCC-2998 colon
  TGI: > 100 µM
NCI-H226 lung
  TGI: > 100 µM
SK-OV-3 ovarian
  TGI: > 100 µM
RPMI-8226 leukemia
  TGI: > 100 µM
A498 renal
  TGI: > 100 µM
SN12C renal
  TGI: > 100 µM
EKVX NSCLC
  TGI: > 100 µM
OVCAR-4 ovarian
  TGI: > 100 µM
T-47D breast
  TGI: > 100 µM
ACHN renal
  TGI: > 100 µM
PC-3 prostate
  TGI: > 100 µM
HL-60(TB) leukemia
  TGI: > 100 µM
SNB-75 CNS
  TGI: > 100 µM
IGROV1 ovarian
  TGI: > 100 µM
NCI/ADR-RES ovarian
  TGI: > 100 µM
SF-268 CNS
  TGI: > 100 µM
M14 melanoma
  TGI: > 100 µM
MCF7 breast
  TGI: > 100 µM
DU-145 prostate
  TGI: > 100 µM
SF-295 CNS
  TGI: > 100 µM
UACC-257 melanoma
  TGI: > 100 µM
HCT-116 colon
  TGI: > 100 µM
HOP-92 NSCLC
  TGI: > 100 µM
MDA-N
  TGI: > 100 µM
CCRF-CEM leukemia
  TGI: > 100 µM
SW-620 colon
  TGI: > 100 µM
A549 NSCLC
  TGI: > 100 µM
NCI-H522 lung
  TGI: > 100 µM
LOX IMVI melanoma
  TGI: > 100 µM
MDA-MB-231 breast
  TGI: > 100 µM
OVCAR-5 ovarian
  TGI: > 100 µM
UO-31 renal
  TGI: > 100 µM
COLO 205 colon
  TGI: > 100 µM
HCT-15 colon
  TGI: > 100 µM
BT-549 breast
  TGI: > 100 µM
TK-10 renal
  TGI: > 100 µM
NCI-H23 lung
  TGI: > 100 µM

## COC(=O)Nc1nc2ccccc2c(=O)[nH]1
SF-539 CNS
  TGI: > 100 µM
SK-MEL-2 melanoma
  TGI: > 100 µM
RXF 393 renal
  TGI: > 100 µM
HT29 colon
  TGI: > 100 µM
SK-MEL-28 melanoma
  TGI: > 100 µM
KM12 colon
  TGI: > 100 µM
HS 578T breast
  TGI: > 100 µM
MOLT-4 leukemia
  TGI: > 100 µM
SNB-19 CNS
  TGI: > 100 µM
786-0 renal
  TGI: > 100 µM
U251 CNS
  TGI: > 100 µM
CAKI-1 renal
  TGI: > 100 µM
SK-MEL-5 melanoma
  TGI: > 100 µM
K-562 leukemia
  TGI: > 100 µM
UACC-62 melanoma
  TGI: > 100 µM
MALME-3M melanoma
  TGI: > 100 µM
OVCAR-8 ovarian
  TGI: > 100 µM
NCI-H460 lung
  TGI: > 100 µM
HOP-62 NSCLC
  TGI: > 100 µM
OVCAR-3 ovarian
  TGI: > 100 µM
SR leukemia
  TGI: > 100 µM
HCC-2998 colon
  TGI: > 100 µM
NCI-H226 lung
  TGI: > 100 µM
SK-OV-3 ovarian
  TGI: > 100 µM
SN12C renal
  TGI: > 100 µM
EKVX NSCLC
  TGI: > 100 µM
OVCAR-4 ovarian
  TGI: > 100 µM
T-47D breast
  TGI: > 100 µM
ACHN renal
  TGI: > 100 µM
PC-3 prostate
  TGI: > 100 µM
HL-60(TB) leukemia
  TGI: > 100 µM
SNB-75 CNS
  TGI: > 100 µM
IGROV1 ovarian
  TGI: > 100 µM
NCI/ADR-RES ovarian
  TGI: > 100 µM
SF-268 CNS
  TGI: > 100 µM
M14 melanoma
  TGI: > 100 µM
MCF7 breast
  TGI: > 100 µM
DU-145 prostate
  TGI: > 100 µM
SF-295 CNS
  TGI: > 100 µM
UACC-257 melanoma
  TGI: > 100 µM
HCT-116 colon
  TGI: > 100 µM
MDA-N
  TGI: 50.8 µM
CCRF-CEM leukemia
  TGI: > 100 µM
SW-620 colon
  TGI: > 100 µM
A549 NSCLC
  TGI: > 100 µM
NCI-H522 lung
  TGI: > 100 µM
MDA-MB-231 breast
  TGI: > 100 µM
OVCAR-5 ovarian
  TGI: > 100 µM
UO-31 renal
  TGI: > 100 µM
COLO 205 colon
  TGI: > 100 µM
HCT-15 colon
  TGI: > 100 µM
BT-549 breast
  TGI: > 100 µM
TK-10 renal
  TGI: > 100 µM
NCI-H23 lung
  TGI: > 100 µM
